The source made the active and inactive calls. No cut-off for these calls is given here.

Test system in one data set: not listed separately
The experiment in a line: pKa value was determined. The class given is physicochemical.
Settings: not given
`CC(C)(N)CC(=O)N[C@@H]1CCc2ccccc2N(Cc2ccc(-c3ccccc3-c3nnn[nH]3)cc2)C1=O` displayed a pKa of 9.3.

With `CC(C)(N)C(=O)N[C@@H]1CCc2ccccc2N(Cc2ccc(-c3ccccc3-c3nn[nH]n3)cc2)C1=O`, the pKa is 7.9.

In the case of `C[C@@H](O)CNC(C)(C)CC(=O)N[C@@H]1CCc2ccccc2N(Cc2ccc(-c3ccccc3-c3nnn[nH]3)cc2)C1=O` [L-692585], the pKa amounted to 9.1.

The target in a further data set is Growth hormone secretagogue receptor type 1 (Rattus norvegicus) (UniProt O08725). The experiment in a line: In vitro effective dose was measured for the growth hormone release in rat pituitary cells. The class given is functional, cell-based. The conditions noted are these: Pituitary gland cell.
Sequence of Growth hormone secretagogue receptor type 1 (Rattus norvegicus) (O08725 whole entry): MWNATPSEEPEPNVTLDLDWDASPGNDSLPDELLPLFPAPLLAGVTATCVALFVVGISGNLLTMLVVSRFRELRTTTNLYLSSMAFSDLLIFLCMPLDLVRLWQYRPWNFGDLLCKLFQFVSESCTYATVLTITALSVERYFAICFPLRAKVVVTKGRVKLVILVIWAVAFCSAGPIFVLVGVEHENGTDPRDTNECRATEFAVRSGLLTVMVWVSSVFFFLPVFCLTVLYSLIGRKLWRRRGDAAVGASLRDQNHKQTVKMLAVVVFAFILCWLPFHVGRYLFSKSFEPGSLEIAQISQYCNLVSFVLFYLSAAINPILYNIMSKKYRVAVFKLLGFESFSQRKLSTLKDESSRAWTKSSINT
The compound `CC[C@@H](N)C(=O)N[C@@H]1CCc2ccccc2N(Cc2ccc(-c3ccccc3-c3nn[nH]n3)cc2)C1=O` displayed an ED50 of 0.3 µM.

`CC(C)(N)CCC(=O)N[C@@H]1CCc2ccccc2N(Cc2ccc(-c3ccccc3-c3nn[nH]n3)cc2)C1=O`: the ED50 turned out to be 3 µM.

Regarding `CC(C)(CC(=O)N[C@@H]1CCc2ccccc2N(Cc2ccc(-c3ccccc3-c3nn[nH]n3)cc2)C1=O)NCCO`, the ED50 amounted to 30 µM.

On to `NCCC(=O)N[C@@H]1CCc2ccccc2N(Cc2ccc(-c3ccccc3-c3nn[nH]n3)cc2)C1=O`, for which the ED50 turned out to be 2 µM.

In turn, `C[C@@H](O)CNC(C)(C)CC(=O)N[C@@H]1CCc2ccccc2N(Cc2ccc(-c3ccccc3-c3nn[nH]n3)cc2)C1=O` yielded an ED50 of 3 µM.

Take `C[C@H](O)CNC(C)(C)CC(=O)N[C@@H]1CCc2ccccc2N(Cc2ccc(-c3ccccc3-c3nn[nH]n3)cc2)C1=O`: the ED50 was 7 µM.

`CCCNC(C)(C)CC(=O)N[C@@H]1CCc2ccccc2N(Cc2ccc(-c3ccccc3-c3nn[nH]n3)cc2)C1=O` came in with an ED50 of 50 µM.

`CC(C)(N)C(=O)N[C@@H]1CCc2ccccc2N(Cc2ccc(-c3ccccc3-c3nn[nH]n3)cc2)C1=O` showed an ED50 of 0.03 µM.

In turn, `CC(C)(CN)C(=O)N[C@@H]1CCc2ccccc2N(Cc2ccc(-c3ccccc3-c3nn[nH]n3)cc2)C1=O` returned an ED50 of 3 µM.

Compound `C[C@@H](N)C(=O)N[C@@H]1CCc2ccccc2N(Cc2ccc(-c3ccccc3-c3nn[nH]n3)cc2)C1=O` (stereo in doubt; 11) registered an ED50 of 1.4 µM.

In turn, `N[C@@H]1CCc2ccccc2N(Cc2ccc(-c3ccccc3-c3nn[nH]n3)cc2)C1=O` registered an ED50 of 9 µM.

`NCC(=O)N[C@@H]1CCc2ccccc2N(Cc2ccc(-c3ccccc3-c3nn[nH]n3)cc2)C1=O` displayed an ED50 of 9 µM.

Take `CC(C)CNC(C)(C)CC(=O)N[C@@H]1CCc2ccccc2N(Cc2ccc(-c3ccccc3-c3nn[nH]n3)cc2)C1=O`: the ED50 is 85 µM.

Compound `CC(C)(CC(=O)N[C@@H]1CCc2ccccc2N(Cc2ccc(-c3ccccc3-c3nn[nH]n3)cc2)C1=O)NCCN` came in with an ED50 of 230 µM.

On to `CC(C)(CC(=O)N[C@@H]1CCc2ccccc2N(Cc2ccc(-c3ccccc3-c3nn[nH]n3)cc2)C1=O)NCc1ccccc1`, for which the ED50 was 65 µM.

Compound `N[C@H](Cc1ccccc1)C(=O)N[C@@H]1CCc2ccccc2N(Cc2ccc(-c3ccccc3-c3nn[nH]n3)cc2)C1=O` came in with an ED50 of 2 µM.

On to `CC(C)(N)CC(=O)N[C@@H]1CCc2ccccc2N(Cc2ccc(-c3ccccc3-c3nn[nH]n3)cc2)C1=O`, for which the ED50 worked out at 0.06 µM.

The compound `C[C@@H](N)C(=O)N[C@@H]1CCc2ccccc2N(Cc2ccc(-c3ccccc3-c3nn[nH]n3)cc2)C1=O` (stereo in doubt; 12) came in with an ED50 of 0.1 µM.

For the next data set, the species on record is Rattus norvegicus. The experiment in a line: In vitro effective dose was measured for the growth hormone release in rat pituitary cells; Inactive at 20 ug/mL. In kind it is functional, cell-based. The settings on record: Pituitary gland cell.
On to `CC(=O)N[C@@H]1CCc2ccccc2N(Cc2ccc(-c3ccccc3-c3nn[nH]n3)cc2)C1=O`, for which the ED50 result is “inactive”.

As to `CC(=O)NC(C)(C)CC(=O)N[C@@H]1CCc2ccccc2N(Cc2ccc(-c3ccccc3-c3nn[nH]n3)cc2)C1=O`, the ED50 result is “inactive”.

Regarding `CC(C)(C)CC(=O)N[C@@H]1CCc2ccccc2N(Cc2ccc(-c3ccccc3-c3nn[nH]n3)cc2)C1=O`, the ED50 entry is “inactive”.

As to `CC(C)(CC(=O)N[C@@H]1CCc2ccccc2N(Cc2ccc(-c3ccccc3-c3nn[nH]n3)cc2)C1=O)NC(=O)OC(C)(C)C`, the ED50 result was “inactive”.

Values taken from ChEMBL document CHEMBL1127282, “Structure-activity relationships in the amino acid sidechain of L-692,429” (Bioorg Med Chem Lett, 1994).
